The text below walks through data of article PMC8286840, “Identifying SARS-CoV-2 antiviral compounds by screening for small molecule inhibitors of Nsp3 papain-like protease” (Biochemical Journal, 2021).

The target in experiment [1] is T1, SARS-CoV-2 PLpro (nsp3 1564–1878) (Severe acute respiratory syndrome coronavirus 2, UniProt P0DTD1). Description: biochemical. More on the design: FRET-quenched peptide (Pro3) cleavage by PLpro, 10 min pre-incubation, slope over 20 min, normalised to no-compound control. The conditions noted are these: read-out: % of control remaining.
For experiment [2], the target named is T1, SARS-CoV-2 PLpro (nsp3 1564–1878). As to the kind of experiment: biochemical. More on the design: FRET-quenched peptide (Pro3) cleavage by PLpro, 10 min pre-incubation, slope over 20 min, normalised to no-compound control. To be noted: read-out: % of control remaining. This is another data set of the same source.

Molecules are shown by their SMILES. Where a name gives a salt, the structure may show the parent alone. Read-outs that look alike come from different tables or passages of the source.

For `O=Nc1ccc2oc(=O)ccc2c1` [6-Nitroso-1,2-benzopyrone], in experiment [1] (Well no.=1099, low concentration screen), the remaining activity at 1.25 µM is 95.7%. Further, the remaining activity at 3.75 µM in experiment [2] (Well no.=1099, high concentration screen) is 104%.
In the case of `COc1cc(C(N)=O)ccc1NC(=O)[C@@H]1N[C@@H](CC(C)(C)C)[C@@]2(C(=O)Nc3cc(Cl)ccc32)[C@H]1c1cccc(Cl)c1F` [RO8994], the remaining activity at 1.25 µM in experiment [1] (Well no.=7108, low concentration screen) was 92.4%. In addition, the remaining activity at 3.75 µM in experiment [2] (Well no.=7108, high concentration screen) worked out at 89.6%.
In the case of `CCOC(=O)c1cncn1[C@H](C)c1ccccc1` [Etomidate], in experiment [1] (Well no.=5187, low concentration screen), the remaining activity at 1.25 µM is 100%. The remaining activity at 3.75 µM in experiment [2] (Well no.=5187, high concentration screen) was found to be 101%.
Take `CCCN1CCO[C@@H]2c3cc(O)ccc3OC[C@H]21` (racemic): the remaining activity at 1.25 µM in experiment [1] (Well no.=1505, low concentration screen) was found to be 96%. Moreover, the remaining activity at 3.75 µM in experiment [2] (Well no.=1505, high concentration screen) was 96.1%.
Regarding `CC(=O)Nc1ccc(C(=O)Nc2ccccc2N)cc1` [CI994 (Tacedinaline)], in experiment [1] (Well no.=5165, low concentration screen), the remaining activity at 1.25 µM was determined as 103%. In experiment [2] (Well no.=5165, high concentration screen), the remaining activity at 3.75 µM was 101%.
As for `Cc1ccc2c(=O)c3ccccc3n(CCCN)c2c1C` [ER 27319 maleate - 10-(3-Aminopropyl)-3,4-dimethyl-9(10H)-acridinone maleate], the remaining activity at 1.25 µM in experiment [1] (Well no.=2536, low concentration screen) came out at 98.5%. In experiment [2] (Well no.=2536, high concentration screen), the remaining activity at 3.75 µM was 99.3%.
As to `CC(C)(C)NCC(O)c1ccc(O)c(CO)c1` (stereo not drawn) [Salbutamol], the remaining activity at 1.25 µM in experiment [1] (Well no.=1366, low concentration screen) was found to be 101%. Further, the remaining activity at 3.75 µM in experiment [2] (Well no.=1366, high concentration screen) was 101%.
Regarding `Cn1c(O)c(-c2[nH]c3ccccc3c2N=O)c2ccc(Br)cc21` [GSK-3 Inhibitor IX, Control, MeBIO], in experiment [1] (Well no.=2427, low concentration screen), the remaining activity at 1.25 µM was determined as 106%. Also, the remaining activity at 3.75 µM in experiment [2] (Well no.=2427, high concentration screen) came out at 108%.
In the case of `CCN(CCCCOC(=O)c1ccc(OC)c(OC)c1)C(C)Cc1ccc(OC)cc1` (stereo not drawn) [Mebeverine (hydrochloride)], the remaining activity at 1.25 µM in experiment [1] (Well no.=7048, low concentration screen) was 108%. In addition, the remaining activity at 3.75 µM in experiment [2] (Well no.=7048, high concentration screen) stood at 101%.
As for `O=[N+]([O-])c1ccc2c(c1)S(=O)(=O)C=C2` [Stattic], the remaining activity at 1.25 µM in experiment [1] (Well no.=4748, low concentration screen) came out at 104%. For the same molecule, the remaining activity at 3.75 µM in experiment [2] (Well no.=4748, high concentration screen) was determined as 104%.
As for `COc1cc(NS(=O)(=O)c2ccc(N)cc2)nc(OC)n1` [Sulfadimethoxine], the remaining activity at 1.25 µM turned out to be 93.2% in experiment [1] (Well no.=2291, low concentration screen) and 95.1% in experiment [1] (Well no.=8358, low concentration screen). The remaining activity at 3.75 µM stood at 91.8% in experiment [2] (Well no.=2291, high concentration screen) and 95.5% in experiment [2] (Well no.=8358, high concentration screen).
For `CC(=O)C(C)=O` [2,3-Butanedione], in experiment [1] (Well no.=687, low concentration screen), the remaining activity at 1.25 µM worked out at 98.3%. Besides, in experiment [2] (Well no.=687, high concentration screen), the remaining activity at 3.75 µM was found to be 97.2%.
Regarding `Cc1cccc(C#Cc2ccccc2)n1` [MPEP (Hydrochloride)], in experiment [1] (Well no.=8541, low concentration screen), the remaining activity at 1.25 µM amounted to 96.2%. Moreover, in experiment [2] (Well no.=8541, high concentration screen), the remaining activity at 3.75 µM stood at 90.4%.
Regarding `O=c1cc(-c2ccccc2)oc2cc(O)cc(O)c12` [Chrysine], the remaining activity at 1.25 µM in experiment [1] (Well no.=3276, low concentration screen) came to 101%. For the same molecule, in experiment [2] (Well no.=3276, high concentration screen), the remaining activity at 3.75 µM came out at 100%.
Regarding `C=C1O[C@@](CO)(n2cnc3c(N)ncnc32)[C@H](O)[C@@H]1O` [Decoyinine], the remaining activity at 1.25 µM in experiment [1] (Well no.=3223, low concentration screen) was found to be 100%. Besides, the remaining activity at 3.75 µM in experiment [2] (Well no.=3223, high concentration screen) is 104%.
On to `Cc1cn([C@@H]2O[C@H](CO)[C@@H](O)[C@H]2O)c(=O)[nH]c1=O` [5-Methyluridine], for which the remaining activity at 1.25 µM worked out at 101% in experiment [1] (Well no.=6213, low concentration screen) and 96.6% in experiment [1] (Well no.=8891, low concentration screen). Further, the remaining activity at 3.75 µM in experiment [2] (Well no.=6213, high concentration screen) was found to be 91.5%; in experiment [2] (Well no.=8891, high concentration screen), 98.5%.
As for `O=C(C[S+]([O-])Cc1ccco1)NC/C=C\COc1cc(CN2CCCCC2)ccn1` (stereo not drawn) [Lafutidine], the remaining activity at 1.25 µM was determined as 93.3% in experiment [1] (Well no.=4722, low concentration screen) and 90.1% in experiment [1] (Well no.=7581, low concentration screen). The remaining activity at 3.75 µM came out at 95% in experiment [2] (Well no.=4722, high concentration screen) and 90.4% in experiment [2] (Well no.=7581, high concentration screen).
For the molecule `CC(C)(C=O)Cc1cc(C(C)(C)C)c(O)c(C(C)(C)C)c1` [CGP-13501], the remaining activity at 1.25 µM in experiment [1] (Well no.=91, low concentration screen) worked out at 105%. For the same molecule, the remaining activity at 3.75 µM in experiment [2] (Well no.=91, high concentration screen) was 105%.
With `CCCC/C=C/CCCCCCCCC(=O)O` [10(E)-Pentadecenoic acid], the remaining activity at 1.25 µM in experiment [1] (Well no.=4300, low concentration screen) is 97.7%. Besides, in experiment [2] (Well no.=4300, high concentration screen), the remaining activity at 3.75 µM amounted to 89.6%.
With `NNC(=O)c1ccncc1` [Isoniazid], the remaining activity at 1.25 µM in experiment [1] (Well no.=1744, low concentration screen) was 101%. The remaining activity at 3.75 µM in experiment [2] (Well no.=1744, high concentration screen) stood at 103%.
Regarding `O=c1[nH]ccc2c(O)cccc12` [1,5-Isoquinolinediol], in experiment [1] (Well no.=827, low concentration screen), the remaining activity at 1.25 µM was determined as 97.8%. Moreover, the remaining activity at 3.75 µM in experiment [2] (Well no.=827, high concentration screen) was determined as 99.5%.
Regarding `O=P(O)(O)C(O)(Cc1cccnc1)P(=O)(O)O` [Risedronate sodium], the remaining activity at 1.25 µM in experiment [1] (Well no.=4819, low concentration screen) amounted to 104%. In experiment [2] (Well no.=4819, high concentration screen), the remaining activity at 3.75 µM turned out to be 102%.
`CCCC(C)(C)c1ccc2c(c1)OC(C)(C)[C@@H]1CC=C(C)C[C@@H]21` [JWH-133]: in experiment [1], the remaining activity at 1.25 µM was 102%. The remaining activity at 3.75 µM in experiment [2] was found to be 104%.
Consider `N=C(N)N1CCc2ccccc2C1` [Debrisoquin sulfate], for which the remaining activity at 1.25 µM in experiment [1] (Well no.=397, low concentration screen) was 103%. In addition, in experiment [2] (Well no.=397, high concentration screen), the remaining activity at 3.75 µM turned out to be 104%.
In the case of `CC(=O)CCCCn1c(=O)c2c(ncn2C)n(C)c1=O` [Pentoxifylline], the remaining activity at 1.25 µM in experiment [1] (Well no.=1046, low concentration screen) was determined as 92.7%; in experiment [1] (Well no.=2101, low concentration screen), 101%. Also, the remaining activity at 3.75 µM in experiment [2] (Well no.=1046, high concentration screen) is 94.8%; in experiment [2] (Well no.=2101, high concentration screen), 100%.
On to `FC(F)c1nc2ccccc2n1-c1nc(N2CCOCC2)nc(N2CCOCC2)n1` [ZSTK474], for which the remaining activity at 1.25 µM in experiment [1] (Well no.=4623, low concentration screen) amounted to 102%. In experiment [2] (Well no.=4623, high concentration screen), the remaining activity at 3.75 µM amounted to 106%.
On to `Nc1ncnc2c1ncn2[C@@H]1O[C@H](C(=O)NC2CC2)[C@@H](O)[C@H]1O` [5'-(N-Cyclopropyl)carboxamidoadenosine], for which, in experiment [1] (Well no.=86, low concentration screen), the remaining activity at 1.25 µM was 99.1%. In addition, in experiment [2] (Well no.=86, high concentration screen), the remaining activity at 3.75 µM was 101%.
For `CCC1(c2ccccc2)C(=O)NCNC1=O` [Primidone], the remaining activity at 1.25 µM in experiment [1] (Well no.=1443, low concentration screen) is 101%. For the same molecule, the remaining activity at 3.75 µM in experiment [2] (Well no.=1443, high concentration screen) turned out to be 95.8%.
On to `O=C(Nc1ccncc1)C(=O)c1cn(Cc2ccc(Cl)cc2)c2ccccc12` [Indibulin], for which the remaining activity at 1.25 µM in experiment [1] (Well no.=6784, low concentration screen) worked out at 98.6%. Also, the remaining activity at 3.75 µM in experiment [2] (Well no.=6784, high concentration screen) was determined as 98.9%.
Regarding `O=c1oc2cc(O)ccc2s1` [Tioxolone], in experiment [1] (Well no.=4952, low concentration screen), the remaining activity at 1.25 µM was determined as 95.3%. For the same molecule, the remaining activity at 3.75 µM in experiment [2] (Well no.=4952, high concentration screen) stood at 91.8%.
Consider `Oc1ccc2c3c1O[C@H]1c4[nH]c5c(c4C[C@@]4(O)[C@@H](C2)N(CC2CC2)CC[C@]314)C[C@@]1(O)[C@H]2Cc3ccc(O)c4c3[C@@]1(CCN2CC1CC1)[C@H]5O4` [nor-Binaltorphimine dihydrochloride], for which, in experiment [1] (Well no.=805, low concentration screen), the remaining activity at 1.25 µM turned out to be 100%. Further, the remaining activity at 3.75 µM in experiment [2] (Well no.=805, high concentration screen) turned out to be 97%.
For the molecule `Cc1ncc(CN2CC=C(c3ccccc3)CC2)c(N)n1` [Ro 10-5824 (dihydrochloride)], the remaining activity at 1.25 µM in experiment [1] (Well no.=7039, low concentration screen) amounted to 105%. For the same molecule, the remaining activity at 3.75 µM in experiment [2] (Well no.=7039, high concentration screen) was determined as 106%.
